Results published in the supplement of paper PMC5908809.

Columns and labels:
[1] = system: normal NK cells expanded with K562-aAPC; test: percent inhibition of viability; higher = more inhibition; conditions: 72 h, IL-2 2.5 ng/mL
Description: (§1)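 Drug sensitivity and resistance testing on K562-aAPC-expanded normal NK cells: 5 concentrations (10-fold steps over a 10,000-fold range), 72 h at 37 °C, viability by CellTiter-Glo normalised to DMSO and benzethonium chloride controls; DSS from the fitted curve.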

[2] = system: DERL-7 (IL-2 2.5 ng/mL); test: as above; conditions: 72 h
[3] = system: IMC-1 (IL-2 20 ng/mL); test: as above; conditions: 72 h
[4] = system: KAI3 (IL-2 2.5 ng/mL); test: as above; conditions: 72 h
[5] = system: KHYG-1 (IL-2 2.5 ng/mL); test: as above; conditions: 72 h
[6] = system: NK-92 (IL-2 2.5 ng/mL); test: as above; conditions: 72 h
[7] = system: NK-YS (IL-2 2.5 ng/mL); test: as above; conditions: 72 h
[8] = system: NKL (IL-2 2.5 ng/mL); test: as above; conditions: 72 h
[9] = system: SNK-6 (IL-2 2.5 ng/mL); test: as above; conditions: 72 h
[10] = system: YT (IL-2 2.5 ng/mL); test: as above; conditions: 72 h
[11] = system: normal primary NK cells, pool 1 (3 donors) (IL-2 2.5 ng/mL); test: as above; conditions: 72 h
[12] = system: normal primary NK cells, pool 1 (3 donors), resting (IL-2 0 ng/mL); test: as above; conditions: 72 h
[13] = system: normal primary NK cells, pool 2 (3 donors) (IL-2 2.5 ng/mL); test: as above; conditions: 72 h
[14] = system: normal primary NK cells, pool 3 (3 donors) (IL-2 2.5 ng/mL); test: as above; conditions: 72 h
[15] = system: normal NK cells expanded with K562-aAPC; test: drug sensitivity score (DSS) (DSS units); higher = more sensitive; extreme values may be limits of the assay; conditions: 72 h; IL-2 2.5 ng/mL
Description: as §1

[16] = system: DERL-7 (IL-2 2.5 ng/mL); test: as above; conditions: 72 h
[17] = system: IMC-1 (IL-2 20 ng/mL); test: as above; conditions: 72 h
[18] = system: KAI3 (IL-2 2.5 ng/mL); test: as above; conditions: 72 h
[19] = system: KHYG-1 (IL-2 2.5 ng/mL); test: as above; conditions: 72 h
[20] = system: NK-92 (IL-2 2.5 ng/mL); test: as above; conditions: 72 h
[21] = system: NK-YS (IL-2 2.5 ng/mL); test: as above; conditions: 72 h
[22] = system: NKL (IL-2 2.5 ng/mL); test: as above; conditions: 72 h
[23] = system: SNK-6 (IL-2 2.5 ng/mL); test: as above; conditions: 72 h
[24] = system: YT (IL-2 2.5 ng/mL); test: as above; conditions: 72 h
[25] = system: normal primary NK cells, pool 1 (3 donors) (IL-2 2.5 ng/mL); test: as above; conditions: 72 h
[26] = system: normal primary NK cells, pool 1 (3 donors), resting (IL-2 0 ng/mL); test: as above; conditions: 72 h
[27] = system: normal primary NK cells, pool 2 (3 donors) (IL-2 2.5 ng/mL); test: as above; conditions: 72 h
[28] = system: normal primary NK cells, pool 3 (3 donors) (IL-2 2.5 ng/mL); test: as above; conditions: 72 h

CCOC(=O)CCNc1cc(N2CCc3ccccc3CC2)nc(-c2ccccn2)n1 [GSK-J4] (max concentration tested 100000 nM)
percent inhibition of viability [%]
Conditions | 10 nM | 100 nM | 1000 nM | 10000 nM | 100000 nM
[1] | -1.25 | -3.45 | -1.63 | 93.7 | 99.5
[2] | -0.14 | 7.18 | 14.4 | 93.4 | 99.4
[3] | -5.61 | -2.96 | 39.7 | 97 | 100
[4] | -4.58 | 1.93 | 2.78 | 94.3 | 98.9
[5] | -1.03 | -1.4 | 20 | 101 | 99.2
[6] | -9.95 | -0.92 | 60.9 | 104 | 98.1
[7] | -1.22 | -3.86 | -1.41 | 98.6 | 99.6
[8] | -0.55 | -7.46 | -8.29 | 104 | 98.2
[9] | -0.34 | 7.09 | 6.11 | 94.8 | 99.7
[10] | -1.98 | -3.85 | 4.52 | 104 | 99.3
[11] | -2.65 | -4.87 | 13.6 | 97.9 | 99.8
[12] | -7.04 | -16 | 34.7 | 96.2 | 99
[13] | -5.62 | -2.09 | 5.39 | 92.4 | 98.7
[14] | -2.08 | -5.17 | 19.9 | 94 | 99.5

Conditions | drug sensitivity score
[15] | 16.9
[16] | 18.9
[17] | 22.9
[18] | 17.5
[19] | 21.2
[20] | 25.2
[21] | 17.6
[22] | 17.6
[23] | 18.1
[24] | 18.9
[25] | 20.2
[26] | 22.6
[27] | 17.5
[28] | 19.8

CN1CCN(c2cc(C(=O)Nc3ccc4c(c3)-c3c(c(C(N)=O)nn3-c3ccc(F)cc3)CC4)c(Cl)cn2)CC1 [PHA 408] (max concentration tested 10000 nM)
percent inhibition of viability [%]
Conditions | 1 nM | 10 nM | 100 nM | 1000 nM | 10000 nM
[1] | -8.15 | -10.8 | -1.64 | 16.7 | 101
[2] | -1.3 | 0.79 | 2.16 | 31.9 | 101
[3] | -8.52 | -6.11 | -8.53 | 2.74 | 99.6
[4] | -0.05 | 1.36 | 9.21 | 50.4 | 101
[5] | -10.4 | -8.63 | -10.2 | -0.31 | 104
[6] | -21 | -16.1 | -4.02 | 12.9 | 102
[7] | -12.4 | -7.83 | -4.48 | 7.91 | 103
[8] | -18.1 | -8.26 | -5.06 | 22.7 | 103
[9] | -17.6 | -11.2 | 0.21 | 22.9 | 100
[10] | -7.69 | -3.99 | -2.06 | 15.8 | 104
[11] | -10.8 | -7.07 | 1.01 | 6.7 | 101
[12] | 18.8 | 21.2 | 14.8 | 12.5 | 100
[13] | 1.04 | -1.49 | 11.9 | 13 | 101
[14] | 1.98 | 1.33 | 13.2 | 4.36 | 101

Conditions | drug sensitivity score
[15] | 8.3
[16] | 10.1
[17] | 5.9
[18] | 11.6
[19] | 5.88
[20] | 7.75
[21] | 6.95
[22] | 9.11
[23] | 9.12
[24] | 8.22
[25] | 6.64
[26] | 7.64
[27] | 7.73
[28] | 6.27
